Measured values published in ChEMBL document CHEMBL3603783, “Monoterpene indole alkaloid hydrazone derivatives with apoptosis inducing activity in human HCT116 colon and HepG2 liver carcinoma cells” (2015).
Activity calls are given as the source filed them. No cut-off for these calls is given here.

What was measured:
HCT-116 [1] = assay: Cytotoxicity against human HCT116 cells assessed as reduction in cell viability at 5 to 50 uM after 72 hrs by MTS assay; format: functional, cell-based
HepG2 [2] = assay: Cytotoxicity against human HepG2 cells assessed as reduction in cell viability at 5 to 50 uM after 72 hrs by MTS assay; format: functional, cell-based
HCT-116 [3] = assay: Induction of apoptosis in human HCT116 cells at 5 to 50 uM after 72 hrs by Guava ViaCount flow cytometric analysis; format: functional, cell-based
HepG2 [4] = assay: Induction of apoptosis in human HepG2 cells at 5 to 50 uM after 72 hrs by Guava ViaCount flow cytometric analysis; format: functional, cell-based
HCT-116 [5] = assay: Induction of apoptosis in human HCT116 cells assessed as change in nuclear morphology at 25 to 50 uM after 24 hrs by Hoechst staining-based fluorescence microscopic analysis; format: functional, cell-based
HepG2 [6] = assay: Induction of apoptosis in human HepG2 cells assessed as change in nuclear morphology at 25 to 50 uM after 24 hrs by Hoechst staining-based fluorescence microscopic analysis; format: functional, cell-based
HCT-116 [7] = assay: Cytotoxicity against human HCT116 cells assessed as reduction in cell viability at 25 uM after 72 hrs by MTS assay relative to control; format: functional
HepG2 [8] = assay: Cytotoxicity against human HepG2 cells assessed as reduction in cell viability at 25 uM after 72 hrs by MTS assay relative to control; format: functional
HCT-116 [9] = assay: Cytotoxicity against human HCT116 cells assessed as reduction in cell viability at 10 uM after 72 hrs by MTS assay relative to control; format: functional
HCT-116 [10] = assay: Induction of apoptosis in human HCT116 cells at 25 uM after 72 hrs by Guava ViaCount flow cytometric analysis relative to control; format: functional
HepG2 [11] = assay: Induction of apoptosis in human HepG2 cells at 25 uM after 72 hrs by Guava ViaCount flow cytometric analysis relative to control; format: functional
HCT-116 [12] = assay: Induction of apoptosis in human HCT116 cells assessed as change in nuclear morphology at 25 uM after 24 hrs by Hoechst staining-based fluorescence microscopic analysis relative to vehicle-treated control; format: functional
HCT-116 [13] = assay: Induction of apoptosis in human HCT116 cells assessed as change in nuclear morphology at 25 uM after 24 hrs by Hoechst staining-based fluorescence microscopic analysis relative to 5-FU; format: functional
HepG2 [14] = assay: Induction of apoptosis in human HepG2 cells assessed as change in nuclear morphology at 25 uM after 24 hrs by Hoechst staining-based fluorescence microscopic analysis relative to vehicle-treated control; format: functional
HepG2 [15] = assay: Induction of apoptosis in human HepG2 cells assessed as change in nuclear morphology at 25 uM after 24 hrs by Hoechst staining-based fluorescence microscopic analysis relative to 5-FU; format: functional
HCT-116 [16] = assay: Induction of apoptosis in human HCT116 cells assessed as increase in caspase-3/7 activity at 25 to 50 uM after 24 hrs by caspase-Glo 3/7 assay; format: functional, cell-based
HepG2 [17] = assay: Induction of apoptosis in human HepG2 cells assessed as increase in caspase-3/7 activity at 25 to 50 uM after 24 hrs by caspase-Glo 3/7 assay; format: functional, cell-based
HCT-116 [18] = assay: Cytotoxicity against human HCT116 cells assessed as reduction in cell viability at 50 uM after 72 hrs by MTS assay relative to control; format: functional
HepG2 [19] = assay: Cytotoxicity against human HepG2 cells assessed as reduction in cell viability at 50 uM after 72 hrs by MTS assay relative to control; format: functional
HCT-116 [20] = assay: Induction of apoptosis in human HCT116 cells at 50 uM after 72 hrs by Guava ViaCount flow cytometric analysis relative to control; format: functional
HepG2 [21] = assay: Induction of apoptosis in human HepG2 cells at 50 uM after 72 hrs by Guava ViaCount flow cytometric analysis relative to control; format: functional

## O=c1[nH]cc(F)c(=O)[nH]1
HCT-116 [1]
  Activity: Active
HepG2 [2]
  Activity: Active
HCT-116 [3]
  Activity: Active
HepG2 [4]
  Activity: Active
HCT-116 [5]
  Activity: Active
HepG2 [6]
  Activity: Active

## CC[C@H]1CN(C)[C@H]2Cc3c([nH]c4ccccc34)/C(=N/Nc3ccc(Br)cn3)C[C@H]1[C@@H]2C(=O)OC
HCT-116 [7]
  Activity: >95%
HepG2 [8]
  Activity: >95%
HCT-116 [9]
  Activity: 75%
HCT-116 [10]
  Activity: 95%
HepG2 [11]
  Activity: 95%
HCT-116 [12]
  fold change (FC): 4
HCT-116 [13]
  fold change (FC): 4
HepG2 [14]
  fold change (FC): 5.5
HepG2 [15]
  fold change (FC): 2.7
HCT-116 [16]
  Activity: Active
HepG2 [17]
  Activity: Active

## CC[C@H]1CN(C)[C@H]2Cc3c([nH]c4ccccc34)C(=O)C[C@H]1[C@@H]2C(=O)OC
HCT-116 [18]
  Activity: inactive
HepG2 [19]
  Activity: inactive
HCT-116 [3]
  Activity: inactive
HepG2 [4]
  Activity: inactive

## CC[C@@H]1CN(C)[C@H]2Cc3c([nH]c4ccccc34)C(=O)C[C@@H]1[C@H]2C(=O)OC
HCT-116 [18]
  Activity: inactive
HepG2 [19]
  Activity: inactive
HCT-116 [3]
  Activity: inactive
HepG2 [4]
  Activity: inactive

## CC[C@@H]1CN(C)[C@H]2Cc3c([nH]c4ccccc34)/C(=N/Nc3ccc(Br)cn3)C[C@H]1[C@@H]2C(=O)OC
HCT-116 [7]
  Activity: >95%
HepG2 [8]
  Activity: >95%
HCT-116 [20]
  Activity: 95%
HepG2 [21]
  Activity: 95%
HCT-116 [12]
  fold change (FC): 2
HCT-116 [13]
  fold change (FC): 2
HepG2 [14]
  fold change (FC): 4
HepG2 [15]
  fold change (FC): 2
HCT-116 [16]
  Activity: Active
HepG2 [17]
  Activity: Active

## CC[C@H]1CN(C)[C@H]2Cc3c([nH]c4ccccc34)/C(=N/Nc3ccccc3)C[C@H]1[C@@H]2C(=O)OC
HCT-116 [18]
  Activity: inactive
HepG2 [19]
  Activity: inactive

## CC[C@@H]1CN(C)[C@H]2Cc3c([nH]c4ccccc34)/C(=N/Nc3ccccc3)C[C@H]1[C@@H]2C(=O)OC
HepG2 [8]
  Activity: 60%
HCT-116 [18]
  Activity: >95%
HepG2 [19]
  Activity: >95%
HCT-116 [10]
  Activity: 35%
HCT-116 [20]
  Activity: 95%
HepG2 [11]
  Activity: 90%
HepG2 [21]
  Activity: 95%
HCT-116 [5]
  Activity: Active
HepG2 [6]
  Activity: Active
HCT-116 [16]
  Activity: Active
HepG2 [17]
  Activity: Active
